Test results: publication PMC9369442, “Synthetic Peucedanocoumarin IV Prevents α-Synuclein Neurotoxicity in an Animal Model of Parkinson’s Disease” (International Journal of Molecular Sciences, 2022)

Tests used:
[1] = tested on: SH-SY5Y cells with Tet-Off conditional expression of β23; experiment: Trypan blue exclusion cell viability assay, Tet-Off β23 expression; format: cell-based; conditions: for effect on β23-induced cytotoxicity: 1 μM, 24 h; for EC50: Homo sapiens, Tet-Off β23, trypan blue exclusion, read-out: median effective concentration, cytoprotection against β23 toxicity; for cytotoxicity of the compound at high concentrations: up to 4 µM
Procedure: Figure 1 Peucedanocoumarin IV (PCiv) inhibits β23 aggregations and cytotoxicity in SH-SY5Y cells. (A) Scheme showing the detailed experimental steps in the organic synthesis of racemic PCiv and racemic PCiii (rac-PCiii, and rac-PCiv). Both PCiii and PCiv used in this study are racemic forms. (B) Trypan blue exclusion cell viability assessment in SH-SY5Y cells with Tet-Off-induced β23 expressions. β23 was expressed for 24 h using the Tet-off system. Further expression of β23 was halted by doxycycline (Dox) treatment with simultaneous treatment of the PCiii, PCiv, or their synthetic intermediate, trans-khellatone (t-khellatone, 1 μM 24 h). Cell viability was assessed 24 h after doxycycline treatment (n = 5 per group). (C) Synthetic PCiv’s protective effect on Tet-Off-expressed β23 toxicity in SH-SY5Y cells compared with peucedanocoumarin III (PCiii) determined by trypan blue exclusion assay. (D) The degradation of β23 monitored by Western blot at 37 h after doxycycline (200 ng/mL) treatment. The representative Western blot image of HA (β23) in SH-SY5Y cells treated with synthetic PCiii, synthetic PCiv (1 μM, 37 h), or DMSO as a vehicle. (E) Quantification of HA (β23) expression in SH-SY5Y cells from the indicated experimental groups in panel D (n = 3 experiments per group). (F) Representative immunofluorescence of steady state HA (β23) expression in SH-SY5Y cells expressing Tet-Off regulatable reporter mCherry and HA-tagged β23. HA-β23 was expressed for 24 h using the Tet-off system. Further expression of β23 was halted by Dox treatment in the presence of PCiii or PCiv (1 μM, 37 h). (G) Quantification of HA (β23) immunofluorescence signal in mCherry positive SH-SY5Y cells in each experimental group (n = 32 cells from three separate experiments per group). The data are expressed as means ± SEMs. * p < 0.05, ** p < 0.01, *** p < 0.001, and **** p < 0.0001, ANOVA test followed by Tukey’s post hoc analysis. Two-way ANOVA was used in panel C.
Human neuroblastoma SH-SY5Y cells (ATCC, Manassas, VA, USA) were grown in complete media containing DMEMs, 10% fetal bovine serum (vol/vol), and antibiotics (penicillin-streptomycin 100 U/mL, Thermo Fisher Scientific, Waltham, MA, USA). The atmospheric condition used to preserve the cells consisted of 5% CO2/95% air at 37 °C and maintained a humidified environment. X-tremeGENE HP transfection reagents (Roche, Basel, Switzerland) were used for transient transfection of DNA constructs (pCMV-tTA, TetP-β23, and pTet-dual2 [5]) following the manufacturer’s instructions.
SH-SY5Y cells were plated in 12-well plates at a density of 0.2 × 10^6 cells per well. Following transient transfection with the indicated constructs and subsequent treatment protocol, the cells were harvested by trypsinization, thereby yielding single-cell suspensions. The cells were washed twice with phosphate-buffered saline (PBS) and resuspended in serum-free DMEM. The resuspended cells were mixed with an equal volume of 0.4% trypan blue (w/v) and incubated for 2 min at room temperature. Live and dead cells were counted using a Countess II Automated Cell Counter (Life Technologies, Carlsbad, CA, USA) for assessing cell viability.

[2] = tested on: α-synuclein PFF-treated mice cortical neurons; experiment: PFF-induced α-synucleinopathy in primary cortical neurons, immunofluorescence; format: cell-based, mouse; conditions: for endogenous α-synuclein expression: PBS- or PFF-treated mouse cortical neurons
Procedure: Figure 2 PCiv prevents α-synuclein aggregation in vitro and in cultured neurons with PFF treatment. (A) Representative Western blots showing the degree of recombinant α-synuclein (αSyn) aggregation in a test tube in the presence or absence of PCiv (100 μM) at the indicated incubation duration (phosphate-buffered saline [PBS], 37 °C for 3 or 5 days). Aggregation of α-synuclein was determined using α-synuclein antibody. (B) Quantification of the relative amount of α-synuclein aggregate in high molecular weight sizes in panel A (n = 3 per group). (C) Representative immunofluorescence of MAP2 and Lewy-like inclusion marker pS129-αSyn in mice cortical neurons treated with α-synuclein preformed fibril (PFF) (1 μg, for 14 days). To evaluate the protective effects of PCiv as compared with PCiii, these compounds were treated (1 μM every 2 days for 14 days) following the PFF treatment. (D) Quantification of pS129-αSyn immunofluorescence signal intensities in MAP2-positive cortical neurons in each experimental group (n = 15 cells from three separate experiments). (E) Cell viability assessment in the indicated experimental groups was monitored by CCK-8 assay (n = 3 per group). The data are expressed as means ± SEMs. * p < 0.05, ** p < 0.01, *** p < 0.001, and **** p < 0.0001, ANOVA test followed by Tukey’s post hoc analysis.
CD1 mice were purchased from Orient Co. for use in the mouse primary neuron culture. E14 embryos from CD1 mice were dissected for primary cortical neurons in Neurobasal A medium (Gibco, Thermo Fisher Scientific Inc., Waltham, MA, USA) supplemented with B-27 (Gibco, Thermo Fisher Scientific Inc., Waltham, MA, USA) and 1 mM L-glutamine. Next, the primary cortical neurons were maintained in a poly L-lysine-coated tissue culture plate, and the medium was changed every 2–3 days. After 7 days, PFF was added to the cortical neurons and incubated for 14 days to observe the p-S129-α-synuclein signal which was used for immunofluorescence analysis. […] The optical value was read at 450 nm using a multi-detection microplate reader (Synergy, BioTek Instruments Inc., Winooski, VT, USA). […]
(A) Representative Western blots showing the degree of recombinant α-synuclein (αSyn) aggregation in a test tube in the presence or absence of t-Khellatone, PCiii, and PCiv (100 μM) at 0 and 5 days of incubation (phosphate-buffered saline [PBS], 37 °C for 5 days). Aggregation of α-synuclein was determined using α- synuclein antibody. (B) Quantification of relative amount of α-synuclein aggregate in high molecular weight sizes in panel A (n = 3 per group). […] (D) Quantification of filament conformation-αSyn (Filament) immunofluorescence signal intensities in MAP2 -positive cortical neurons in each experimental group (n = 15 cells from three separate experiments). […]

[3] = 1 μM every 2 days for 14 days, PFF 1 μg

Compound	effect on β23-induced cytotoxicity [1]	EC50 [1]	cytotoxicity of the compound at high concentrations [1]	PFF-induced elevation of filament conformation-αSyn signal [2, 3]	PFF-induced elevation of pS129-αSyn signal [2, 3]	endogenous α-synuclein expression [2]
C/C=C(\C)C(=O)O[C@H]1[C@H](OC(C)=O)c2c(ccc3ccc(=O)oc23)OC1(C)C (relative stereo) [PCiv, trans-4′-acetyl-3′-tigloylkhellactone]	nearly equivalent cytoprotective biological function	204 nM	no obvious cytotoxicity	mitigated	mitigated	not affected
C/C=C(\C)C(=O)O[C@@H]1c2c(ccc3ccc(=O)oc23)OC(C)(C)[C@H]1OC(C)=O (relative stereo) [PCiii, peucedanocoumarin III]	potently prevented	318 nM	no obvious cytotoxicity			not affected
